BigSolDB 2.1

C[C@@H](O)[C@H]1C(=O)N2C(C(=O)[O-])=C(SC3Cn4cnc[n+]4C3)[C@H](C)[C@H]12 (stereo partly drawn)
solubility (mole fraction)
Conditions	in DMF	in DMSO	in NMP	in acetone	in acetonitrile	in ethanol	in ethyl acetate	in isopropanol	in methanol	in n-propanol
283.15 K	5.8e-05	–	7.58e-05	1.77e-06	3.63e-05	1.49e-05	5.21e-05	6.66e-06	1.86e-05	1.17e-05
288.15 K	6.44e-05	–	8.14e-05	2.51e-06	4.07e-05	1.76e-05	5.73e-05	8.24e-06	2.19e-05	1.37e-05
293.15 K	7.11e-05	7.86e-05	8.79e-05	3.4e-06	4.61e-05	2.09e-05	6.48e-05	9.98e-06	2.59e-05	1.62e-05
298.15 K	7.8e-05	8.66e-05	9.66e-05	4.57e-06	5.17e-05	2.46e-05	7.16e-05	1.2e-05	3.07e-05	1.97e-05
303.15 K	8.72e-05	9.47e-05	0.000106	5.97e-06	5.82e-05	2.9e-05	7.97e-05	1.41e-05	3.57e-05	2.32e-05
308.15 K	9.65e-05	0.000104	0.000117	8.13e-06	6.67e-05	3.41e-05	8.9e-05	1.69e-05	4.18e-05	2.7e-05
313.15 K	0.000107	0.000116	0.000128	1.06e-05	7.46e-05	3.97e-05	9.93e-05	2e-05	4.9e-05	3.19e-05
318.15 K	0.000119	0.000129	0.000141	1.39e-05	8.5e-05	4.54e-05	0.000111	2.37e-05	5.63e-05	3.71e-05
323.15 K	0.000131	0.000142	0.000156	1.79e-05	9.56e-05	5.23e-05	0.000123	2.79e-05	6.61e-05	4.32e-05
